Test results published in US11026922B2, “Compositions comprising melatonin and flavonoids for use in the treatment of tumours resistant to chemotherapy” (priority 2014, dated 2021).

Key:
[1] = test system: chemoresistant MDA-MB-231 human tumour cells (breast adenocarcinoma); experiment: Viability of MDA-MB-231 cells, xCELLigence assay (Table 5); type: cell-based; conditions: conclusion from Tables 5 and 6 (MDA-MB-231 and MCF-7)
[2] = test system: MDA-MB-231 (breast adenocarcinoma); experiment: Cell viability of chemoresistant MDA-MB-231 cells (Tables 1, 2, 4); type: cell-based, human; conditions: alone or in association with cyclophosphamide
Description: The activity of the association of at least one flavonoid, preferably selected from the group comprising or, alternatively, consisting of oxerutin, diosmin, hesperidin and rutin in association with melatonin and with synthetic chemotherapeutic agents (cyclophosphamide/methotrexate) and/or arctigenin, arctiin, berberine, berbamine, sanguinarine and chelerythrine (indicated with the term “Extracts” in the Tables) was studied in resistant cell lines of adenocarcinomas and carcinomas in comparison with chemosensitive tumour cell lines and line cells.

SMILES	effect on the anti-tumour activity of flavonoids [1]	synergistic effects in association with cyclophosphamide [2]
COc1ccc2[nH]cc(CCNC(C)=O)c2c1 [Melatonin, melatonin]	enhances the anti-tumour activity of flavonoids	
O=c1c(O)c(-c2ccc(O)c(O)c2)oc2cc(O)cc(O)c12 [Quercetin, quercetin]		absence of synergistic effects
